From paper PMC7979765, “trans-Translation inhibitors bind to a novel site on the ribosome and clear Neisseria gonorrhoeae in vivo” (Nature Communications, 2021)
In brackets after ≈: the same amount, converted by molar mass. Several values for one entry are separate records, joined by “and”; a condition that tells them apart may be missing. Equal entries are not always repeated. Entries after “also recorded” stand apart in the source; their conditions may differ. Where two headings read alike, the source gives them in different places.

Assays:
[1] = molecular target: T1, Muscarinic M3 (Homo sapiens, UniProt P20309); experiment: Receptor Profiling 252810; assay type: binding
T1 construct: purchased Eurofins Discovery Services (Panlabs safety panel)
Method: (§1) Several in vitro selectivity assays were performed at Eurofins Discovery Services using established methods and controls that behaved as expected (Supplementary Tables 5 and 6). […] For receptor panel profiling, MBX-4132 was evaluated at 10 μM and activity of >50% (agonist or antagonist; note that negative % inhibition indicates agonism) was scored as active.

[2] = molecular target: T2, Adrenergic α2A (Homo sapiens, UniProt P08913); experiment: Receptor Profiling 203630; assay type: binding
T2 construct: purchased Eurofins Discovery Services (Panlabs safety panel)
Method: as §1

[3] = molecular target: T3, Muscarinic M1 (Homo sapiens, UniProt P11229); experiment: Receptor Profiling 252610; assay type: binding
T3 construct: purchased Eurofins Discovery Services (Panlabs safety panel)
Method: as §1

[4] = tested on: translation; experiment: In vitro translation assay (full-length nano-luciferase gene); assay type: biochemical, Escherichia coli; conditions: for % of translation activity: 0 uM = 100
[5] = tested on: Sodium Channel, Site 2; experiment: Receptor Profiling 279510; assay type: binding, rat; conditions: 10 μM
Method: as §1

[6] = Multiplexed cytotoxicity assay (nuclei, ROS, TMRE); assay type: cell-based, human; conditions: human, human primary hepatocytes; for fold induction at 24 h, 1 μM: 1.00E+00 μM; for fold induction at 24 h, 10 μM: 1.00E+01 μM; for fold induction at 24 h, 100 μM: 1.00E+02 μM; for fold induction at 24 h, 0.1 μM: 1.00E-01 μM; for fold induction at 24 h, 0.0101 μM: 1.01E-02 μM; for fold induction at 24 h, 31.6 μM: 3.16E+01 μM; for fold induction at 24 h, 3.17 μM: 3.17E+00 μM; for fold induction at 24 h, 0.317 μM: 3.17E-01 μM; for fold induction at 24 h, 0.0318 μM: 3.18E-02 μM; for fold induction at 24 h, 0.00318 μM: 3.18E-03 μM
Method: Multiplexed cytotoxicity assay — Human primary hepatocytes were grown on collagen I coated optical plates, cultured in hepatocytes culture media in a humidified 5% CO2 atmosphere at 37 °C. Cells were incubated in the presence of MBX-4132 at 10 concentrations starting a 100 µM and serially diluted 3.16-fold for 24 h at 37 °C, incubated for 30 min with multiplexed fluorescent dyes (Hoescht, 6-carboxy-2’,7’-dichlorodihydrofluorescein diazetat, and TMRE) and imaged to allow visualization of nuclei, reactive oxygen species generation, and mitochondrial oxidation. A >3.5-fold induction of ROS was considered consistent with formation of ROS and a >2-fold change in TMRE signal indicated an increase or decrease in mitochondrial membrane potential.

[7] = tested on: N. gonorrhoeae strain H041; experiment: In vivo efficacy in the gonorrhea mouse model; conditions: for mouse cfu: individual mice, 2.00E+01 = no CFU/mL recovered, limit of detection
[8] = Murine tolerability studies; assay type: in vivo; conditions: for adverse effects (in words): mice
Method: Single dose tolerability studies — Female CD-1 mice were fasted for 2 h prior, and 4 h after dosing. […] 4–6 weeks-old CD-1 female mice were received from Charles River laboratories and acclimated for at least 5 days prior to the start of the study. Apart from specific instances of fasting described in the experimental, the mice had free access to food and water. The animals were housed 3–6 per cage in a temperature and humidity-controlled room with a 12 h light cycle. All procedures described are in compliance with the Animal Welfare Act, the Guide for the Care and Use of Laboratory Animals, and the Office of Laboratory Animal Welfare. These studies conform to the NeoSome IACUC policies and Operational Guidelines as approved by the IACUC membership, NeoSome Safety Officers, or Attending Veterinarian. All testing was performed at Neosome LLC.
Multidose tolerability studies — In preparation for this study, an abbreviated version of the above murine PK study using the same formulation (A) examined fasted mice vs. fed mice was performed, with plasma samples taken at 1 and 4 h post dosing and analyses as described in the PK section.
Female CD-1 mice were given free access to food and water. […] Any abnormal observations (behavior, agility, weight, coat condition and appearance, color of urine, quality of feces, etc.) were noted.

[9] = Liver microsome stability, dog; assay type: in vitro ADME; conditions: for half-life: dog, liver microsomes
Method: To examine potential for first-pass metabolism of analogs in the liver, the stability of analogs in the presence of liver microsome preparations (Eurofins Discovery for human, dog and rat; Xenotech for mouse) was measured using the method of Kuhnz, et al.[50]. for murine studies and Oback for the dog, human and rat studies. The amount of parent compound remaining after incubation with microsomes in the presence of NADPH over a 30 min time range was measured using a reverse-phase liquid chromatography/mass spectroscopy method that was customized for each compound. Half-lives were calculated using linear regression analysis of several time points.

[10] = tested on: Legionella pneumophila; experiment: microbe, parasite or virus in culture; assay type: cell-based
[11] = tested on: Calcium Channel L-Type, Dihydropyridine; experiment: Receptor Profiling 214600; assay type: binding, rat; conditions: 10 μM
Method: as §1

[12] = molecular target: T4, Transporter, Serotonin (5-Hyroxytryptamine) (SERT) (Homo sapiens, UniProt P31645); experiment: Receptor Profiling 274030; assay type: binding
T4 construct: purchased Eurofins Discovery Services 274030
Method: as §1

[13] = molecular target: T5, CYP2C9 (Homo sapiens, UniProt P11712); experiment: Cyp inhibition assay 4878; assay type: in vitro ADME; conditions: catalog reference 4878
T5 construct: Eurofins Discovery Services (contract assay) 4878
Method: as §1

[14] = tested on: CYP450 enzymes; experiment: CYP450 inhibition assays (panel statement); assay type: in vitro ADME, human; conditions: 5 concentrations from 30 nM to 100 μM
Method: as §1

[15] = tested on: Mycoplasma pneumoniae; experiment: MIC, microbroth dilution; assay type: cell-based
[16] = read-out: Mean MMP inhibition (fold induction)
[17] = read-out: Mean ROS (fold induction)

T4 sequence (P31645 whole entry): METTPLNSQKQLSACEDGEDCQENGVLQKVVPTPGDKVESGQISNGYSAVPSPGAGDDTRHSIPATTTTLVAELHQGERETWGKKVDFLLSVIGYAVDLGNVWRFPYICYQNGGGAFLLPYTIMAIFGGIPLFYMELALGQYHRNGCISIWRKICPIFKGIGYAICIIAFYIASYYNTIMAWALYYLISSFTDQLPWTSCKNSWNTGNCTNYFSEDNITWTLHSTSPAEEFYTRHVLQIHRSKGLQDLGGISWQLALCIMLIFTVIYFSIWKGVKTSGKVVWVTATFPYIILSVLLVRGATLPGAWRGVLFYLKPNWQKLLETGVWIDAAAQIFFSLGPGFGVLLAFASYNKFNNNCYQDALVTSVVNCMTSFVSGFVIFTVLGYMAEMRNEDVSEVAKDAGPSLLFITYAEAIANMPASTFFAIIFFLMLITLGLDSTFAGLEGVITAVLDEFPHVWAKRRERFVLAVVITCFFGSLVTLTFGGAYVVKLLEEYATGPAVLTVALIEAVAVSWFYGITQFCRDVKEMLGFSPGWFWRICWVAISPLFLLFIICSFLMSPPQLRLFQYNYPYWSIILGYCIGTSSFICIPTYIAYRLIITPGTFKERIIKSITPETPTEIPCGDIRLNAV
T2 sequence (P08913 whole entry): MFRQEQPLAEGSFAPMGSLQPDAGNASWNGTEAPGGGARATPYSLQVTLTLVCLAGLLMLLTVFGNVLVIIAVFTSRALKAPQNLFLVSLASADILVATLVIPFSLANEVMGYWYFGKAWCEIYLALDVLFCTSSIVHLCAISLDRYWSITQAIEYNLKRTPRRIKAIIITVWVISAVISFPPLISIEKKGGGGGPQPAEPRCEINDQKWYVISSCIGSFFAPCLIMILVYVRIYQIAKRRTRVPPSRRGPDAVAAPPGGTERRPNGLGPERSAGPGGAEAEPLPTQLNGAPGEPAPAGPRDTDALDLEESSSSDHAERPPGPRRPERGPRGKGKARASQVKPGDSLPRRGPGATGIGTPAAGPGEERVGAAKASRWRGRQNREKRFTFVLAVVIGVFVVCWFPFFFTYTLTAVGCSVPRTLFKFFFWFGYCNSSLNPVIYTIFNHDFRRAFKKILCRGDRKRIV
T5 sequence (P11712 whole entry): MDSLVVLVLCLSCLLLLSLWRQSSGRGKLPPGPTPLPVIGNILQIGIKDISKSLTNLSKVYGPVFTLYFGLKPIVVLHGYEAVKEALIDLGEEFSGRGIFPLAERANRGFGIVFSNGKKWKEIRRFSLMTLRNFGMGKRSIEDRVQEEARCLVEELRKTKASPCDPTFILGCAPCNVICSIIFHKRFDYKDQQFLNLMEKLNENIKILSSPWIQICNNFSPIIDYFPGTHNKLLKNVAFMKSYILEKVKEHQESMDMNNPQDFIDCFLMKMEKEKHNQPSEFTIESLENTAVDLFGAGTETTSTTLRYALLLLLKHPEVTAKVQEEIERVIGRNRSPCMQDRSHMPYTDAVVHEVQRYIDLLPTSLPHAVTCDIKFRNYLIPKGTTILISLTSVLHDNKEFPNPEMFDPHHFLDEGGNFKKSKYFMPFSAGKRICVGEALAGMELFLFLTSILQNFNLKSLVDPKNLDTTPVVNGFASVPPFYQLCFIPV
T1 sequence (P20309 whole entry): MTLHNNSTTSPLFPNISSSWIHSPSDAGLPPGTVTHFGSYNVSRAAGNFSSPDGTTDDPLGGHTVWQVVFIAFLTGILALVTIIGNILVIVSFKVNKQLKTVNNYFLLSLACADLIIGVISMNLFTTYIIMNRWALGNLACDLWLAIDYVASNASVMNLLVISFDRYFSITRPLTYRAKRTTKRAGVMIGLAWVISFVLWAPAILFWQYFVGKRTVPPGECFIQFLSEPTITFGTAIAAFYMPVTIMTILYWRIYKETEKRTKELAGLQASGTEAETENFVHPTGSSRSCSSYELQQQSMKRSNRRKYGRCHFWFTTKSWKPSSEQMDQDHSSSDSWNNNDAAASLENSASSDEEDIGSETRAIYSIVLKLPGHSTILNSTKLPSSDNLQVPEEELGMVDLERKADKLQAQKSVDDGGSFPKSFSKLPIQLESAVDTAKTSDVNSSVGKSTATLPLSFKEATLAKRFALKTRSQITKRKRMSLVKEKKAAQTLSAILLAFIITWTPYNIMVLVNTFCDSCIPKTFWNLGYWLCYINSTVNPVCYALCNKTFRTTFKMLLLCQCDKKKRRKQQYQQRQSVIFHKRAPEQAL
T3 sequence (P11229 whole entry): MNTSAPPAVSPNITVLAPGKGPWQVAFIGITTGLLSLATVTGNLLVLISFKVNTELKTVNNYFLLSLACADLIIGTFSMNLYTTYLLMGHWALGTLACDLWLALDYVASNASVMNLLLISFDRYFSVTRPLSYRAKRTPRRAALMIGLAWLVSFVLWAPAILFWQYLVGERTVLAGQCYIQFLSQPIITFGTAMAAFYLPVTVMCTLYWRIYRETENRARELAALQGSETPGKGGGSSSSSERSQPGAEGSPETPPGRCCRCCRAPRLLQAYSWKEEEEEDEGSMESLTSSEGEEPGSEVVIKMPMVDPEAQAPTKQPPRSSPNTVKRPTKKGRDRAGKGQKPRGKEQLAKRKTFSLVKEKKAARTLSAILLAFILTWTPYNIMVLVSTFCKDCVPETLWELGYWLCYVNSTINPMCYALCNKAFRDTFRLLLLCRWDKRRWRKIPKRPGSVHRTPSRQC

Compound `O=C(Nc1nnc(-c2ccc(F)cc2)o1)N1CCc2ccccc2C1` [MBX-4132] has an inhibition at 10 µM [1] of 5%, an inhibition at 10 µM [2] of 35% and an inhibition at 10 µM [3] of -7%. The “% of translation activity” value ([4]; [MBX-4132] 0.01 uM) was 94% and 99%, the “% of translation activity” value ([4]; [MBX-4132] 0.1 uM) was 98% and 102% and the “% of translation activity” value ([4]; [MBX-4132] 1 uM) was 92% and 103%. For the same compound, the “% of translation activity” value ([4]; [MBX-4132] 2 uM) was 86% and 97%, the “% of translation activity” value ([4]; [MBX-4132] 10 uM) was 106% and 98% and the “% of translation activity” value ([4]; [MBX-4132] 20 uM) was 97% and 96%. The “% of translation activity” value ([4]; [MBX-4132] 50 uM) was 93% and 99%, the “inhibition of translation in vitro (in words)” value ([4]; full-length nano-luciferase gene control) was “did not inhibit translation; also recorded: does not inhibit translation” and the “% inhibition” value [5] was 21%. For the same compound, the fold induction at 24 h, 1 μM [6, 16] was 0.9, the fold induction at 24 h, 1 μM [6, 17] was 1.2 and the fold induction at 24 h, 10 μM [6, 16] was 1.1. For the same compound, the fold induction at 24 h, 10 μM [6, 17] was 1.9, the fold induction at 24 h, 100 μM [6, 16] was 0.8 and the fold induction at 24 h, 100 μM [6, 17] was 9.2. It also gave a fold induction at 24 h, 0.1 μM [6, 16] of 1.2, a fold induction at 24 h, 0.1 μM [6, 17] of 1.4 and a fold induction at 24 h, 0.0101 μM [6, 16] of 1. It also gave a fold induction at 24 h, 0.0101 μM [6, 17] of 1.4, a fold induction at 24 h, 31.6 μM [6, 16] of 1.1 and a fold induction at 24 h, 31.6 μM [6, 17] of 1.3. It also gave a fold induction at 24 h, 3.17 μM [6, 16] of 1, a fold induction at 24 h, 3.17 μM [6, 17] of 1.1 and a fold induction at 24 h, 0.317 μM [6, 16] of 0.9. The fold induction at 24 h, 0.317 μM [6, 17] was 1.2, the fold induction at 24 h, 0.0318 μM [6, 16] was 0.9 and the fold induction at 24 h, 0.0318 μM [6, 17] was 0.9. For the same compound, the fold induction at 24 h, 0.00318 μM [6, 16] was 1, the fold induction at 24 h, 0.00318 μM [6, 17] was 3.1 and the mouse cfu ([7]; Day 5, MBX-4132 10 MPK, 10 mg/kg) was 2.00E+01 CFU/mL (14×) and 4.20E+02 CFU/mL and 2.61E+03 CFU/mL and 2.38E+03 CFU/mL and 3.50E+05 CFU/mL and 1.00E+06 CFU/mL and 2.60E+02 CFU/mL. The mouse cfu ([7]; Day 6, MBX-4132 10 MPK, 10 mg/kg) was 2.00E+01 CFU/mL (16×) and 1.46E+03 CFU/mL and 2.08E+04 CFU/mL and 3.12E+05 CFU/mL and 7.20E+02 CFU/mL, the mouse cfu ([7]; Day 7, MBX-4132 10 MPK, 10 mg/kg) was 2.00E+01 CFU/mL (18×) and 1.01E+04 CFU/mL and 1.16E+04 CFU/mL and the mouse cfu ([7]; Day 8, MBX-4132 10 MPK, 10 mg/kg) was 2.00E+01 CFU/mL (18×) and 2.20E+02 CFU/mL and 7.00E+02 CFU/mL. The mouse cfu ([7]; Day -1, MBX-4132 10 MPK, 10 mg/kg) was 2.16E+06 CFU/mL and 4.97E+06 CFU/mL and 1.86E+05 CFU/mL and 1.04E+06 CFU/mL and 6.26E+06 CFU/mL and 2.02E+05 CFU/mL and 3.50E+04 CFU/mL and 5.46E+03 CFU/mL and 1.66E+05 CFU/mL and 6.46E+05 CFU/mL and 2.23E+05 CFU/mL and 2.90E+05 CFU/mL and 2.17E+05 CFU/mL and 6.58E+03 CFU/mL and 2.34E+06 CFU/mL and 3.20E+02 CFU/mL and 3.63E+06 CFU/mL and 4.88E+05 CFU/mL and 3.45E+06 CFU/mL and 2.43E+06 CFU/mL, the “mice cleared per day: cleared flag” value ([7]; MBX-4132 10 MPK, individual mice 1-20, 1 = cleared on the day, 0 = not cleared, 10 mg/kg) was 1 and 0 and the “Day (mice cleared per day: day on which the mouse was cleared)” value ([7]; MBX-4132 10 MPK, individual mice 1-20, Day 8 with flag 0 = not cleared, 10 mg/kg) was 3 and 8 and 6 and 5 and 1 and 4 and 2. For the same compound, the “mice completely cleared of infection” value ([7]; single oral dose 10 mg/kg, by 6 days, N. gonorrhoeae H041) was 80%, the “abnormal observations, multidose tolerability” value ([8]; female CD-1 mice, 10 ml/kg of 1.0 mg/ml suspension QD or BID for 7 d, observed 10 d) was “No abnormal observations” and the “abnormal observations, single dose tolerability” value ([8]; female CD-1 mice, oral gavage 10 ml/kg of 1.0, 2.5 or 10.0 mg/ml suspension, 24 h) was “No abnormal observations”. The “adverse effects (in words)” value ([8]; repeat dosing 10 mg/kg BID, 7 d) was “no obvious adverse effects”, the “adverse effects (in words)” value ([8]; single dose of 100 mg/kg) was “no obvious adverse effects” and the “Microsomal stability (t½, min) Dog” value ([9]; Replicate 1/2, Eurofins) was >>60 min. For the same compound, the half-life ([9]; Average Value, Eurofins, read-out: Microsomal stability (t½, min) Dog) was over 60 min, the half-life ([9]; Replicate 1/2, Eurofins, read-out: Microsomal stability (t½, min) Dog) was over 60 min and the half-life ([9]; Reported value, Eurofins, read-out: Microsomal stability (t½, min) Dog) was over 120 min. For the same compound, the half-life ([9]; read-out: Microsomal Stability (t1/2; min) Dog) was over 120 min, the MIC ([10]; Legionella pneumophila ATCC 33153, replicates) was 8.50 mg/L (≈ 25.1 µM) and the MIC ([10]; Legionella pneumophila, ATCC33153) was 8.5 mg/L (≈ 25.1 µM). For the same compound, the “% inhibition” value [11] was 11%, the inhibition at 10 µM [12] was -10% and the “pIC50 (µM) reported” value [13] was “No activity”. The “CYP450 inhibitory activity (in words)” value [14] was “no inhibitory activity >50%”, the MIC ([15]; Mycoplasma pneumoniae ATCC 15531, replicates) was at least 34 mg/L and the MIC ([15]; Mycoplasma, ATCC15531, strain ATCC 15531, read-out: MIC) was at least 34 mg/L.
